# Like-named read-outs stand apart in the source and are kept apart here.
# Legend:
# [1] = biological target: fully phosphorylated, active Mouse ERK2 protein (Mus musculus (Mouse), UniProt P63085); experiment: Active ERK2 (aERK) IMAP assay, condition 1; assay type: biochemical; settings: aERK assay condition 1, 30 μM ATP
# Experimental: Active ERK2 (aERK) Assay: (Unless Indicated Otherwise, the Data Provided for aERK was obtained using Condition 1)
# Activated ERK2 activity was also determined in the IMAP assay format using the procedure outlined above. […] Reactions proceeded for 30 minutes before termination by addition of 60 μl IMAP detection beads in binding buffer. Plates were read as above after 30 minute binding equilibration.
# [2] = biological target: ERK protein (Mus musculus, UniProt P63085); experiment: TdF (Temperature Dependence Fluorescence, thermal shift) assay for ERK; assay type: binding
# Sequence of ERK protein (P63085 2-358 limits assumed): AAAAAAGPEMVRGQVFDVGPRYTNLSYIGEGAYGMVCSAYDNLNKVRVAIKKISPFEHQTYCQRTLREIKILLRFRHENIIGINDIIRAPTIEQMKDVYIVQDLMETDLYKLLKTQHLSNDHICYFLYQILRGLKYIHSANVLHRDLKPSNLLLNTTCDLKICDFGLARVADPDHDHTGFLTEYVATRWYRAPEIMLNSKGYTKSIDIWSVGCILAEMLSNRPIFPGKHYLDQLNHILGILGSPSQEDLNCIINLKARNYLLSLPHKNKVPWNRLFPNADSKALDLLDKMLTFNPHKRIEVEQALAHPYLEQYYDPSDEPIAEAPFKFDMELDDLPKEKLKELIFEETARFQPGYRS
# From the text: Assays: TdF Assay for ERK […] The TdF assay was mainly conducted in the 96-well based CHROMO-4 real time fluorescence plate reader (BioRad). The Sypro Orange (Sigma-Aldrich), environmentally sensitive fluorescence dye, was used to monitor the protein folding-unfolding transition. Protein-ligand binding was gauged by the change (or shift) in the unfolding transition temperature (ΔTm) acquired at protein alone with respect to protein in the presence of ligand of interest. Compound of interest was first prepared in DMSO stock (typical concentration: 10 mM). […] Final percentage of DMSO resided in the sample was 2%. The sample plate was heated from 30° C. to 90° C. with thermal ramping rate of 1° C./min. […] The instrument thermal stability was ±0.2° C. The melting temperatures (Tm) for ERK protein under aforementioned conditions occurred at 61.0±0.2° C. and 64.8±02° C. respectively. Theoretical Basis for TdF-Based Ligand Binding Affinity Constant […] In brief, the binding constant of the ligand at the Tm is expressed as below: [formula] where T0 is the midpoint of unfolding for unliganded protein and Tm is the midpoint of unfolding in presence of ligand. [LTm] is free ligand at Tm. The ΔHu and ΔCpu are the enthalpy of unfolding and heat capacity change of unfolding for the protein respectively. Following algorithm derived by Winsor and coworker, the T0, ΔHu and ΔCpu can be determined separately from nonlinear regression fitting the protein alone melting curve: Where F(T) is the observed fluorescence intensity at any temperature T, Yn and Yu are the predicted fluorescence intensities for fully folded and unfolded protein, respectively; mn and mu are slope correction for changes in Yn and Yu with respect to changes in temperature (analogously replace T0 with Tm in the above equation for liganded protein to yield Tm). […] [formula] where ΔHL (T) is the van't Hoff enthalpy of ligand binding at temperature T and ΔCpL is the heat capacity upon ligand binding. For simplicity, the ΔCpL and ΔHL (T) were set to zero and −7 kcal/mol respectively.
# [3] = biological target: inactive ERK2 (unphosphorylated Mouse ERK2 protein) (Mus musculus (Mouse), UniProt P63085); experiment: Coupled ERK2 (cERK) assay, coupled MEK1/ERK2 IMAP assay; assay type: biochemical; settings: 30 μM ATP
# Sequence of inactive ERK2 (unphosphorylated Mouse ERK2 protein) (P63085 whole entry): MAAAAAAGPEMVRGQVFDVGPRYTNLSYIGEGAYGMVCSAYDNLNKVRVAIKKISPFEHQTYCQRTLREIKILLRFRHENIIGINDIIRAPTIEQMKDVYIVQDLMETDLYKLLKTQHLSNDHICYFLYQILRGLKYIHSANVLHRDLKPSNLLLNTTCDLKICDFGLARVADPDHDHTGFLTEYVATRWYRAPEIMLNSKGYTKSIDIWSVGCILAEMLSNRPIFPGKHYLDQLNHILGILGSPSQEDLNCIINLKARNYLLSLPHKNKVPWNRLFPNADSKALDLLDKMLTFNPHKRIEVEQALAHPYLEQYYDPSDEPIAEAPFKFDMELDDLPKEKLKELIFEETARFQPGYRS
# Experimental: 14 μl of kinase buffer (10 mM Tris.HCl pH 7.2, 10 mM MgCl2, 0.01% Tween-20, 1 mM DTT) containing 0.4 ng unphosphorylated Mouse ERK2 protein was added to each well of a black 384-well assay plate. […] DMSO concentration during initial incubation is 6.7%. ERK2 activity was determined to be insensitive to DMSO concentrations up to 20%. ERK2 was then activated and it's kinase activity measured by the addition of 10 μl kinase buffer with the following components (final concentration per reaction): 2 ng active (phosphorylated) human MEK1 protein and 4 μM (total) ERK2 IMAP substrate peptides (3.9 μM unlabeled […]-CONH2 and 100 nM […](5-carboxyfluorescein)-CONH2) and 30 μM ATP. DMSO concentration during ERK activation was 4%. After one hour, reactions were terminated by addition of 60 μl IMAP detections beads in binding buffer (Molecular Devices). Binding was allowed to equilibrate for 30 minutes before reading the plate on an LJL Analyst Fluorescence Polarization plate reader. […] Active compounds were reconfirmed in an independent assay.
# [4] = 3 μM ERK protein, uncertainty estimated ±50%, read-out: Kd TdF
# Sequence of fully phosphorylated, active Mouse ERK2 protein (P63085 whole entry): as above
SMILES,IC50 [1] [nM],"Kd [2, 4] [nM]",IC50 [3] [nM],"Kd ([2]; read-out: Kd TdF, 3 μM ERK protein, uncertainty estimated ±50%) [nM]"
O=C(N[C@@H]1CCCN(Cc2ccccc2F)C1)c1ccc2[nH]nc(-c3ccnc(Cl)c3)c2c1,26.1,0.58,25,–
CC(C)Oc1ccc(-c2n[nH]c3ccc(C(=O)N[C@@H]4CCCN(Cc5ccccc5F)C4)cc23)cc1,275,1.2,443,–
CC(C)Oc1ccc(-c2n[nH]c3ccc(C(=O)N[C@@H]4CCCN(Cc5ccccc5F)C4)cc23)cn1,77.9,2,124,–
O=C(N[C@@H]1CCCN(Cc2ccccc2F)C1)c1ccc2[nH]nc(-c3ccc4c(c3)CCO4)c2c1,52.1,0.61,48.6,–
O=C(N[C@H]1CCCN(Cc2ccccc2)C1)c1ccc2[nH]nc(-c3ccncc3)c2c1,485,118,304,–
O=C(N[C@H]1CCCN(Cc2ccccc2F)C1)c1ccc2[nH]nc(-c3ccncc3)c2c1,224,38,166,–
O=C(N[C@@H]1CCCN(Cc2ccccc2)C1)c1ccc2[nH]nc(-c3ccncc3)c2c1,5.8,0.3,2.9,–
O=C(N[C@@H]1CCCN(Cc2ccccc2F)C1)c1ccc2[nH]nc(-c3ccncc3)c2c1,5.5,0.6,1.1,–
O=C(NC1CCCN(Cc2ccccc2F)C1)c1ccc2[nH]nc(-c3ccncc3)c2c1 (stereo not shown),28.1,0.3,14.4,–
O=C(NC1CCCN(Cc2ccccc2)C1)c1ccc2[nH]nc(-c3ccncc3)c2c1 (stereo not shown),32.5,0.6,16.6,–
CC(C)Oc1ccc(-c2n[nH]c3ccc(C(=O)NC4CCCN(Cc5ccccc5F)C4)cc23)cn1 (stereo not shown),769,2.9,307,–
O=C(NC1CCCN(Cc2ccccc2)C1)c1ccc2[nH]nc(-c3ccc4c(c3)CCO4)c2c1 (stereo not shown),134,1.4,172,–
O=C(NC1CCCN(Cc2ccccc2F)C1)c1ccc2[nH]nc(-c3ccc4c(c3)CCO4)c2c1 (stereo not shown),284,2.6,231,–
CC(c1ccccc1)N1CCC[C@@H](NC(=O)c2ccc3[nH]nc(-c4ccncc4)c3c2)C1 (stereo partly shown),475,804,763,–
CCn1cc(-c2n[nH]c3ccc(C(=O)N[C@@H]4CCCN(Cc5c(F)cccc5OC)C4)cc23)cn1,114,1.59,–,–
COc1cccc(F)c1CN1CCC[C@@H](NC(=O)c2ccc3[nH]nc(-c4ccc5cncn5c4)c3c2)C1,4.02,0.1,–,–
COc1cccc(F)c1CN1CCC[C@@H](NC(=O)c2ccc3[nH]nc(-c4ccc5nc(C)oc5c4)c3c2)C1,16.4,0.1,–,–
COc1cccc(F)c1CN1CCC[C@@H](NC(=O)c2ccc3[nH]nc(-c4ccc5oc(C)nc5c4)c3c2)C1,45.6,0.6,–,–
Cc1cc(-c2n[nH]c3ccc(C(=O)N[C@@H]4CCCN(C5CCc6ccccc65)C4)cc23)ccn1 (stereo partly shown),65.4,0.28,–,–
COc1cccc(F)c1CN1C[C@@H](C)C[C@@H](NC(=O)c2ccc3[nH]nc(-c4ccc5nccn5c4)c3c2)C1,5.84,0.01,–,–
COc1cccc(F)c1CN1C[C@H](C)C[C@@H](NC(=O)c2ccc3[nH]nc(-c4ccc5nccn5c4)c3c2)C1,10.6,0.03,–,–
COc1cccc(F)c1CN1C[C@@H](C)C[C@@H](NC(=O)c2ccc3[nH]nc(-c4ccc5nn(C)cc5c4)c3c2)C1,6.1,0.02,–,–
Cc1cc(-c2n[nH]c3ccc(C(=O)N[C@@H]4CCCN(CCc5ccccc5C(F)(F)F)C4)cc23)ccn1,86.9,–,–,2.2
"CN1CC(NC(=O)c2ccc3[nH]nc(-c4ccncc4)c3c2)CC(c2ccccc2)C1 (stereo not shown) [drawing 158, N-(1-methyl-5-phenylpiperidin-3-yl)-3-(pyridin-4-yl)-1H-indazole-5-carboxamide]",2.6,1.4,7.4,–

# More lines, main results first:
IC50 [1] [nM],"Kd [2, 4] [nM]",SMILES,IC50 [3] [nM],"Kd ([2]; read-out: Kd TdF, 3 μM ERK protein, uncertainty estimated ±50%) [nM]"
112,0.81,COc1cc(-c2n[nH]c3ccc(C(=O)N[C@@H]4CCCN(Cc5ccccc5F)C4)cc23)ccn1,–,–
33.2,0.4,O=C(N[C@@H]1CCCN(Cc2ccccc2F)C1)c1ccc2[nH]nc(-c3ccnc(C4CC4)c3)c2c1,–,–
18.7,0.53,Cc1cc(-c2n[nH]c3ccc(C(=O)N[C@@H]4CCCN(Cc5csc6ccccc56)C4)cc23)ccn1,–,–
28.1,0.2,Cc1cc(-c2n[nH]c3ccc(C(=O)N[C@@H]4CCCN(Cc5ccccc5Cl)C4)cc23)ccn1,–,–
154,1.95,CC(=O)n1cc(CN2CCC[C@@H](NC(=O)c3ccc4[nH]nc(-c5ccnc(C)c5)c4c3)C2)c2ccccc21,–,–
89,0.13,Cc1cc(-c2n[nH]c3ccc(C(=O)N[C@@H]4CCCN(Cc5c(C)cccc5C)C4)cc23)ccn1,–,–
21.5,1.38,Cc1cc(-c2n[nH]c3ccc(C(=O)N[C@@H]4CCCN(Cc5cn(C)c6ccccc56)C4)cc23)ccn1,–,–
41.7,0.21,Cc1cc(-c2n[nH]c3ccc(C(=O)N[C@@H]4CCCN(Cc5cc6ccccc6n5C)C4)cc23)ccn1,–,–
15.1,1.43,Cc1cc(-c2n[nH]c3ccc(C(=O)N[C@@H]4CCCN(Cc5cc6ccccc6o5)C4)cc23)ccn1,–,–
660,9.76,Cc1cc(-c2n[nH]c3ccc(C(=O)N[C@@H]4CCCN(Cc5cc(F)c(Cl)cc5Cl)C4)cc23)ccn1,–,–
90.1,3.97,Cc1cc(-c2n[nH]c3ccc(C(=O)N[C@@H]4CCCN(Cc5cc6ccccc6s5)C4)cc23)ccn1,–,–
507,20.5,Cc1cc(-c2n[nH]c3ccc(C(=O)N[C@@H]4CCCN(Cc5ccncn5)C4)cc23)ccn1,–,–
220,2.33,COc1cccc(CN2CCC[C@@H](NC(=O)c3ccc4[nH]nc(-c5ccnc(C)c5)c4c3)C2)n1,–,–
204,3.33,COc1cccc(F)c1CN1C[C@H](C)C[C@@H](NC(=O)c2ccc3[nH]nc(-c4ccnc(C)c4)c3c2)C1,–,–

# Reference: patent publication US8999957B2, “Heterocyclic compounds as ERK inhibitors” (Merck Sharp & Dohme Corp., priority 2010, dated 2015)
